Assay results as given in ChEMBL document CHEMBL4483862, “Open-source discovery of chemical leads for next-generation chemoprotective antimalarials” (2018).

Tested on: Plasmodium berghei
Assay: Luciferase/luciferin-expressing antifolate-resistant parasites were used to infect a culture of HepG2 cells that were pre-incubated with compounds. Infected hepatocytes emit light due to the luciferase reaction. Assay results are presented as the percent inhibition of light emission compared to control. […]
Assay type: functional
Conditions: sporozoite; for IC90: read-out: LUCIFERASE INFECTION ASSAY - IC90
[1] = read-out: LUCIFERASE INFECTION ASSAY - IC50

| Structure (SMILES) | IC90 [µM] | IC50 [1] [µM] | also measured |
| --- | --- | --- | --- |
| COc1nc(-c2ccccc2)cc(-c2ccc3c(c2)OCO3)c1C#N | 5.77 |  | IC50 (HEPG2TOX_HILL_SLOPE 1.05, HEPG2TOX_R_SQUARED 0.733, PBLUC_HILL_SLOPE 1.42, PBLUC_R_SQUARED 0.508, read-out: LUCIFERASE INFECTION ASSAY - IC50): 1.23 µM |
| O=C(Nc1ccccc1)c1ccc(C#Cc2ccccc2)o1 | > 11.5 | > 11.5 |  |
| COc1ccc(-c2cnc3cnc(-c4ccc(OC(F)(F)F)cc4)cn23)cn1 | > 8.54 |  | IC50 (PBLUC_HILL_SLOPE 11.4, PBLUC_R_SQUARED 0.148, read-out: LUCIFERASE INFECTION ASSAY - IC50): > 8.54 µM |
| CSc1ccc(Cl)c(C(=O)OCC(=O)N2CCN(C(=O)c3ccco3)CC2)c1 | > 10 | > 10 |  |
| COc1ccc(NC(=O)C2Cc3c(-c4cccc(C(C)=O)c4)ccnc3O2)cc1OC (centres undefined) | > 7.89 |  | IC50 (FFLUC_HILL_SLOPE 0.226, FFLUC_R_SQUARED 0.216, HEPG2TOX_HILL_SLOPE 3.1, HEPG2TOX_R_SQUARED 0.695, PBLUC_HILL_SLOPE 3.79, PBLUC_R_SQUARED 0.351, read-out: LUCIFERASE INFECTION ASSAY - IC50): 4.93 µM |
| Cc1ccc(C(C)C)c(OCC(=O)Nc2ccc(I)c(C)n2)c1 | > 10 |  | IC50 (FFLUC_HILL_SLOPE 2.58, FFLUC_R_SQUARED 0.455, read-out: LUCIFERASE INFECTION ASSAY - IC50): > 10 µM |
| Cc1cccc(-c2cn3c(-c4ccc(CO)cc4)cnc3cn2)c1C | > 10 |  | IC50 (PBLUC_HILL_SLOPE 11.7, PBLUC_R_SQUARED 0.283, read-out: LUCIFERASE INFECTION ASSAY - IC50): 8.31 µM |
| COc1ccc(OC)c(CCNc2nc3cnc(-c4ccccc4C)cc3n2C)c1 | 0.0474 |  | IC50 (HEPG2TOX_HILL_SLOPE 0.343, HEPG2TOX_R_SQUARED 0.532, PBLUC_HILL_SLOPE 5.82, PBLUC_R_SQUARED 0.631, read-out: LUCIFERASE INFECTION ASSAY - IC50): 0.0325 µM |
| COc1ccc(C(C)C)cc1-c1cnc(N)c(-c2cccc(C(F)(F)F)c2)c1 | > 8.54 |  | IC50 (HEPG2TOX_HILL_SLOPE 7.33, HEPG2TOX_R_SQUARED 0.431, PBLUC_HILL_SLOPE 11.3, PBLUC_R_SQUARED 0.541, read-out: LUCIFERASE INFECTION ASSAY - IC50): 8.01 µM |
| O=C(Nc1ccccc1Oc1ccccc1Cl)c1cc2ccccc2c(=O)[nH]1 | 1.25 |  | IC50 (HEPG2TOX_HILL_SLOPE 0.764, HEPG2TOX_R_SQUARED 0.704, PBLUC_HILL_SLOPE 15.6, PBLUC_R_SQUARED 0.531, read-out: LUCIFERASE INFECTION ASSAY - IC50): 1.09 µM |
| COc1cc(C(=O)N(C)Cc2ccccc2N2CCOCC2)cc(OC)c1OC | > 10 | > 10 |  |
| Cc1c(-n2c(SCn3nnc4ccccc4c3=O)nc3ccccc3c2=O)c(=O)n(-c2ccccc2)n1C | > 10 |  | IC50 (PBLUC_HILL_SLOPE 10.1, PBLUC_R_SQUARED 0.287, read-out: LUCIFERASE INFECTION ASSAY - IC50): 9.23 µM |
| CCOCCC(=O)Nc1ccc2c(c1)c(=O)n(C)n2Cc1cccc(C(F)(F)F)c1 | > 7.83 | > 7.83 |  |
| Cc1cc(C)c(CNC(=O)N(C)Cc2cn(-c3ccccc3)nc2-c2ccccc2)c(=O)[nH]1 | > 10 | > 10 |  |
| CC(C)(C)c1ccccc1N1C(=O)C=CC1=O | 6.59 |  | IC50 (HEPG2TOX_HILL_SLOPE 10.3, HEPG2TOX_R_SQUARED 0.72, PBLUC_HILL_SLOPE 8.87, PBLUC_R_SQUARED 0.496, read-out: LUCIFERASE INFECTION ASSAY - IC50): 5.14 µM |
| CSc1nc2ccc(NC(=O)c3[nH]c4c(c3C)C(=O)CCC4)cc2s1 | > 10 | > 10 |  |
| O=S(=O)(Nc1nn(Cc2ccc(C(F)(F)F)cc2)c2ccccc12)c1cccc2nsnc12 | > 6.74 | > 6.74 |  |
| Cc1ccc(-c2cnc3ccc(NC4CCOCC4)nn23)cc1C | 4.53 |  | IC50 (HEPG2TOX_HILL_SLOPE 2.16, HEPG2TOX_R_SQUARED 0.752, PBLUC_HILL_SLOPE 1.94, PBLUC_R_SQUARED 0.563, read-out: LUCIFERASE INFECTION ASSAY - IC50): 1.46 µM |
| Cc1[nH]c(=S)c(C#N)c2c1C1(C)CCC3C(CC=C4CC(O)CCC43C)C1C2 (centres undefined) | > 10 | > 10 |  |
| Cc1sc2nc3c4ccccc4c(Cl)nn3c(=O)c2c1C | > 10 |  | IC50 (HEPG2TOX_HILL_SLOPE 1.74, HEPG2TOX_R_SQUARED 0.905, PBLUC_HILL_SLOPE 1.87, PBLUC_R_SQUARED 0.353, read-out: LUCIFERASE INFECTION ASSAY - IC50): 5.64 µM |
| COC(=O)c1ccc2[nH]c3c(c2c1)CN(c1ncnc2ccccc12)CC3 | 9.79 |  | IC50 (HEPG2TOX_HILL_SLOPE 2.18, 2.21, HEPG2TOX_R_SQUARED 0.310, 0.448, PBLUC_HILL_SLOPE 1.05, 1.29, PBLUC_R_SQUARED 0.612, 0.824, read-out: LUCIFERASE INFECTION ASSAY - IC50): 1.63 µM |

| Structure (SMILES) | IC90 [µM] | IC50 [1] [µM] | also measured |
| --- | --- | --- | --- |
| O=C1C(=O)N(Cc2ccco2)C(=O)N1Cc1ccc(-c2ccccc2)cc1 | > 10 |  | IC50 (HEPG2TOX_HILL_SLOPE 17.7, HEPG2TOX_R_SQUARED 0.836, PBLUC_HILL_SLOPE 2.05, PBLUC_R_SQUARED 0.957, read-out: LUCIFERASE INFECTION ASSAY - IC50): 4.16 µM |
| Cc1ccc(OCC(O)CN2CCc3ccccc3C2)c(C)c1 (centres undefined) | > 9.49 | > 9.49 |  |
| CCc1cc(=O)n2nc(-c3ccccc3)c(-c3ccccc3)c2[nH]1 | > 10.5 |  | IC50 (HEPG2TOX_HILL_SLOPE 1.41, HEPG2TOX_R_SQUARED 0.964, PBLUC_HILL_SLOPE 4.43, PBLUC_R_SQUARED 0.223, read-out: LUCIFERASE INFECTION ASSAY - IC50): 7.37 µM |
| OCCCNc1nn2c(-c3ccccc3Cl)cnc2s1 | > 10.7 | > 10.7 |  |
| c1ccc2c(c1)oc1c(-c3ccc4nccn4c3)cccc12 | > 11.6 |  | IC50 (HEPG2TOX_HILL_SLOPE 5.27, HEPG2TOX_R_SQUARED 0.667, PBLUC_HILL_SLOPE 2.08, PBLUC_R_SQUARED 0.703, read-out: LUCIFERASE INFECTION ASSAY - IC50): 4.57 µM |
| COc1ccc2[nH]cc(CCNC(=O)Nc3ccc(Cl)c(Cl)c3)c2c1 | > 8.72 | > 8.72 |  |
| OC(CNC1CCN(Cc2ccccc2)CC1)COc1ccc(OC(F)(F)F)cc1 (centres undefined) | > 7.77 |  | IC50 (PBLUC_HILL_SLOPE 0.955, PBLUC_R_SQUARED 0.217, read-out: LUCIFERASE INFECTION ASSAY - IC50): > 7.77 µM |
| CNc1nc2cnc(Nc3cc(C(F)(F)F)ccc3F)cc2n1-c1ccccc1 | > 10 |  | IC50 (PBLUC_HILL_SLOPE 2.9, PBLUC_R_SQUARED 0.508, read-out: LUCIFERASE INFECTION ASSAY - IC50): 6.14 µM |
| C=CCn1c[n+](C2=C(NS(=O)(=O)c3ccc(C)cc3)C(=O)c3ccccc3C2=O)c2ccccc21 | 1.26 |  | IC50 (PBLUC_HILL_SLOPE 2.18, PBLUC_R_SQUARED 0.79, read-out: LUCIFERASE INFECTION ASSAY - IC50): 0.462 µM |
| O=C(N/N=C/c1ccccc1C(F)(F)F)c1[nH]c2ccccc2c1-c1ccccc1 | 1.07 |  | IC50 (FFLUC_HILL_SLOPE 16.3, FFLUC_R_SQUARED 0.334, HEPG2TOX_HILL_SLOPE 1.94, HEPG2TOX_R_SQUARED 0.976, PBLUC_HILL_SLOPE 7.87, PBLUC_R_SQUARED 0.839, read-out: LUCIFERASE INFECTION ASSAY - IC50): 0.813 µM |
| C=CCn1c(Sc2nc(C)nc3sc4c(c23)CCC4)nnc1-c1ccco1 | > 10 |  | IC50 (FFLUC_HILL_SLOPE 38.3, FFLUC_R_SQUARED 0.259, read-out: LUCIFERASE INFECTION ASSAY - IC50): > 10 µM |
| COc1ccc(CO/N=C/NC(=O)C(c2ccc(Cl)cc2)c2nc3ccccc3nc2C(F)(F)F)cc1 (centres undefined) | > 6.24 |  | IC50 (HEPG2TOX_HILL_SLOPE 1.06, HEPG2TOX_R_SQUARED 0.661, read-out: LUCIFERASE INFECTION ASSAY - IC50): > 6.24 µM |
| CCOC(=O)c1c(N)sc(Cc2sc(N)c(C(=O)OCC)c2-c2ccccc2)c1-c1ccccc1 | 5.92 |  | IC50 (FFLUC_HILL_SLOPE 10.1, FFLUC_R_SQUARED 0.631, HEPG2TOX_HILL_SLOPE 3.62, HEPG2TOX_R_SQUARED 0.944, PBLUC_HILL_SLOPE 88.7, PBLUC_R_SQUARED 0.482, read-out: LUCIFERASE INFECTION ASSAY - IC50): 5.77 µM |
| Cc1[nH]c2ccccc2c1/C=N/N(Cc1ccccc1)c1ccccc1 | > 10 | > 10 |  |
| Cc1cc(C(=O)COc2ccc(-c3nnco3)cc2)c(C)n1-c1ccc(F)cc1 | > 10 | 8.4 |  |
| COc1cc(OC)cc(-c2cnc3cnc(-c4cccc(OC(C)C)c4)cn23)c1 | > 8.47 |  | IC50 (PBLUC_HILL_SLOPE 3.99, PBLUC_R_SQUARED 0.348, read-out: LUCIFERASE INFECTION ASSAY - IC50): 6.48 µM |
| OCc1cccc(-c2cnc3ccc(-c4cccc(Oc5ccccc5)c4)nn23)c1 | 4.64 |  | IC50 (HEPG2TOX_HILL_SLOPE 3.57, HEPG2TOX_R_SQUARED 0.188, PBLUC_HILL_SLOPE 2.99, PBLUC_R_SQUARED 0.337, read-out: LUCIFERASE INFECTION ASSAY - IC50): 2.23 µM |
| CC(=C(C#N)C#N)c1ccc(Cl)cc1 | > 16.3 |  | IC50 (FFLUC_HILL_SLOPE 16.5, FFLUC_R_SQUARED 0.121, read-out: LUCIFERASE INFECTION ASSAY - IC50): > 16.3 µM |
| CC(=O)c1cccc(NC(=O)Nc2ccc3nc(Cc4ccccc4)nn3c2)c1 | 4.13 |  | IC50 (HEPG2TOX_HILL_SLOPE 12.7, HEPG2TOX_R_SQUARED 0.848, PBLUC_HILL_SLOPE 19.5, PBLUC_R_SQUARED 0.366, read-out: LUCIFERASE INFECTION ASSAY - IC50): 3.69 µM |
| C=CCn1c(SC(C(=O)c2c[nH]c3ccccc23)c2ccccc2)nc2ccccc2c1=O (centres undefined) | > 10 | 8.28 |  |
| Cc1c(S(=O)(=O)c2ccc(Cl)cc2)csc1C(=O)N1CC(C)OC(C)C1 (centres undefined) | > 7.97 | > 7.97 |  |
